Results published in ChEMBL document CHEMBL3044870, “Effect of clomazone on various market classes of dry beans” (Crop Prot, 2007).

Legend:
Format in all cases: organism-based
Settings in all cases: in vivo
[1] = system: Phaseolus vulgaris; assay: Phytotoxicity against Phaseolus vulgaris (black beans) assessed as reduction in shoot dry weight relative to control; design: scale not given: the % may be the effect or the level left
[2] = system: Phaseolus vulgaris; assay: Phytotoxicity against Phaseolus vulgaris (kidney bean) assessed as crop injury
[3] = system: Phaseolus vulgaris; assay: Phytotoxicity against Phaseolus vulgaris (pink beans) assessed as crop injury
[4] = system: Phaseolus vulgaris; assay: Phytotoxicity against Phaseolus vulgaris (white beans) assessed as reduction in plant height applied pre-emergence relative to control; design: scale not given: the % may be the effect or the level left
[5] = system: Phaseolus vulgaris; assay: Phytotoxicity against Phaseolus vulgaris (white beans) assessed as crop injury
[6] = system: Phaseolus vulgaris; assay: Phytotoxicity against Phaseolus vulgaris (black beans) assessed as reduction in plant height applied pre-emergence relative to control; design: scale not given: the % may be the effect or the level left
[7] = system: Phaseolus vulgaris; assay: Phytotoxicity against Phaseolus vulgaris (otebo beans) assessed as reduction in shoot dry weight applied pre-emergence relative to control; design: scale not given: the % may be the effect or the level left
[8] = system: Phaseolus vulgaris; assay: Phytotoxicity against Phaseolus vulgaris (cranberry beans) assessed as crop injury
[9] = system: Phaseolus vulgaris; assay: Phytotoxicity against Phaseolus vulgaris (black beans) assessed as reduction in shoot dry weight applied pre-emergence relative to control; design: scale not given: the % may be the effect or the level left
[10] = system: Phaseolus vulgaris; assay: Phytotoxicity against Phaseolus vulgaris (pinto beans) assessed as reduction in plant height applied pre-emergence relative to control; design: scale not given: the % may be the effect or the level left
[11] = system: Phaseolus vulgaris; assay: Phytotoxicity against yellow eye bean assessed as reduction in plant height applied pre-emergence relative to control; design: scale not given: the % may be the effect or the level left
[12] = system: Phaseolus vulgaris; assay: Phytotoxicity against yellow eye bean assessed as reduction in shoot dry weight applied pre-emergence relative to control; design: scale not given: the % may be the effect or the level left
[13] = system: Phaseolus vulgaris; assay: Phytotoxicity against Phaseolus vulgaris (otebo beans) assessed as reduction in plant height applied pre-emergence relative to control; design: scale not given: the % may be the effect or the level left
[14] = system: Phaseolus vulgaris; assay: Phytotoxicity against Phaseolus vulgaris (pinto beans)s assessed as reduction in shoot dry weight applied pre-emergence relative to control; design: scale not given: the % may be the effect or the level left
[15] = system: Phaseolus vulgaris; assay: Phytotoxicity against Phaseolus vulgaris (white beans) assessed as reduction in shoot dry weight applied pre-emergence relative to control; design: scale not given: the % may be the effect or the level left

Row | Compound | Activity [2] [%] | Activity [4] [%] | Activity [5] [%] | Activity [6] [%] | Activity [8] [%] | other results
1 | CCc1cccc(C)c1N(C(=O)CCl)[C@@H](C)COC [S-METOLACHLOR] |  |  |  |  |  | Activity [1]: 16%
2 | CS(=O)(=O)NC(=O)c1cc(Oc2ccc(C(F)(F)F)cc2Cl)ccc1[N+](=O)[O-] [FOMESAFEN] | 1 |  |  |  |  | Activity [3]: 5%
3 | CCc1cnc(C2=NC(C)(C(C)C)C(=O)N2)c(C(=O)O)c1 (stereo not given) [IMAZETHAPYR] | 2 | 40 | 11 | 40 |  | 
4 | CON(C)C(=O)Nc1ccc(Cl)c(Cl)c1 [LINURON] |  | 24 | 49 | 24 | 4 | Activity [7]: 26%; Activity [9]: 26%; Activity [10]: 24%; Activity [11]: 24%; Activity [12]: 26%; Activity [13]: 24%; Activity [14]: 26%; Activity [15]: 26%
5 | C#CCN1C(=O)COc2cc(F)c(N3C(=O)C4=C(CCCC4)C3=O)cc21 [FLUMIOXAZIN] |  | 28 | 17 | 23 | 4 | 
6 | CCc1cccc(CC)c1N(COC)C(=O)CCl [ALACHLOR] | 0.5 |  | 6 |  |  | 
